Literature values as cited in patent US20050203299A1 (priority 2003, published 2005).

Tests used:
[1] = prepared by recrystallization from ethanol or by heating aripiprazole hydrate at 80° C.; according to WO 03/26659
[2] = molecular target: T1, serotonin 5-HT2C receptor (Homo sapiens, UniProt P28335)
T1 sequence (P28335 33-458): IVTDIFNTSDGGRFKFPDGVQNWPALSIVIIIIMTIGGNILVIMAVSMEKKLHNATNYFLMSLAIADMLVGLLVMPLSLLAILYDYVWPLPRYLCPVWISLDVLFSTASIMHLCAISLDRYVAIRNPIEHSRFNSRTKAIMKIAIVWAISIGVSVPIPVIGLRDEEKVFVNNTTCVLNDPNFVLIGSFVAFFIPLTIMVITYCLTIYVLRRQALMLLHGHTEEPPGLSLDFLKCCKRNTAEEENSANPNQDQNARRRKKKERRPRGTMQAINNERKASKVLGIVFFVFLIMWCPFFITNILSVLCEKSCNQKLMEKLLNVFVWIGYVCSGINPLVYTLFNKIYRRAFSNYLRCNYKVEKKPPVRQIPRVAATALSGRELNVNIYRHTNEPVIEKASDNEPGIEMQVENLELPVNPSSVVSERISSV

[3] = molecular target: serotonin 5-HT2A receptor (Homo sapiens, UniProt P28223)
Sequence of serotonin 5-HT2A receptor (P28223 whole entry): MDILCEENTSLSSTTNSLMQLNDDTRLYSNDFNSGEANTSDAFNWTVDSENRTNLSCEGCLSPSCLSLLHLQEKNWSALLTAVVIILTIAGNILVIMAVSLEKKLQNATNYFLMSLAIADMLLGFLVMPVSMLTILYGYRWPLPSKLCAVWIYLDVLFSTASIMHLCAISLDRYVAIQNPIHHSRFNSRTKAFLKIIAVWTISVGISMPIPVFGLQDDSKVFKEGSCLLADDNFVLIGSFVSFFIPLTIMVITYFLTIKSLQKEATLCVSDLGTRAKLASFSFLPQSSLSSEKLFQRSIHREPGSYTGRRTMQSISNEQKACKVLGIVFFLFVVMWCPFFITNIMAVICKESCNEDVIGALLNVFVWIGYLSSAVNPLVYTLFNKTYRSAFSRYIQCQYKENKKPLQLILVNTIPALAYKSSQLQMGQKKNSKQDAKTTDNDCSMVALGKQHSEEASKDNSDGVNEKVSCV

[4] = molecular target: T2, serotonin 5-HT1A receptor (Homo sapiens, UniProt P08908)
T2 sequence (P08908 1-422): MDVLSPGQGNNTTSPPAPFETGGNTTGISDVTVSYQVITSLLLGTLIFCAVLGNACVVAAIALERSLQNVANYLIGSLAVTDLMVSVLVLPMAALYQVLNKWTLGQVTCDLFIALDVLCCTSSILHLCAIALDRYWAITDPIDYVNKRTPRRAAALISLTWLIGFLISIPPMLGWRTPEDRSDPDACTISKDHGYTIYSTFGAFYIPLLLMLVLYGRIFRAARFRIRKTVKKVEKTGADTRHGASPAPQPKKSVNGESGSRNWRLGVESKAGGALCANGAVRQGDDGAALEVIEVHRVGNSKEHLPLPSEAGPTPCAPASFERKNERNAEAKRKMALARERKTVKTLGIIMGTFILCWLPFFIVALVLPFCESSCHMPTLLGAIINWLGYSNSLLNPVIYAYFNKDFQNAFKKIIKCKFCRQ

histamine H1 receptor = histamine H1 receptor (Homo sapiens, UniProt P35367)
Sequence of histamine H1 receptor (P35367 whole entry): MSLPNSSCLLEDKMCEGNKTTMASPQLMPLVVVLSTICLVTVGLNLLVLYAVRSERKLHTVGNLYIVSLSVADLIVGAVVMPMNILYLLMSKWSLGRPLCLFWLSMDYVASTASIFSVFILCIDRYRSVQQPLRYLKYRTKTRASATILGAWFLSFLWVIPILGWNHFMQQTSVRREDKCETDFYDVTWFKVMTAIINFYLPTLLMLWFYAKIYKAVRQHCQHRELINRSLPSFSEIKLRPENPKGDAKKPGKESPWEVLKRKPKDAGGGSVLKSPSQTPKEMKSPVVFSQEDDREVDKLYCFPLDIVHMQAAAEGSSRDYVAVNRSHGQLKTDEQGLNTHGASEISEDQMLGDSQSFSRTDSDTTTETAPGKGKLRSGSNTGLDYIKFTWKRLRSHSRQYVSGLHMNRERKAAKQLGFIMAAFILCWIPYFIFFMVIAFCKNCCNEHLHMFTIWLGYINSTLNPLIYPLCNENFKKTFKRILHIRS

[5] = system: cholinergic muscarinic receptors
serotonin reuptake site = serotonin reuptake site (Homo sapiens, UniProt P31645)
Sequence of serotonin reuptake site (P31645 whole entry): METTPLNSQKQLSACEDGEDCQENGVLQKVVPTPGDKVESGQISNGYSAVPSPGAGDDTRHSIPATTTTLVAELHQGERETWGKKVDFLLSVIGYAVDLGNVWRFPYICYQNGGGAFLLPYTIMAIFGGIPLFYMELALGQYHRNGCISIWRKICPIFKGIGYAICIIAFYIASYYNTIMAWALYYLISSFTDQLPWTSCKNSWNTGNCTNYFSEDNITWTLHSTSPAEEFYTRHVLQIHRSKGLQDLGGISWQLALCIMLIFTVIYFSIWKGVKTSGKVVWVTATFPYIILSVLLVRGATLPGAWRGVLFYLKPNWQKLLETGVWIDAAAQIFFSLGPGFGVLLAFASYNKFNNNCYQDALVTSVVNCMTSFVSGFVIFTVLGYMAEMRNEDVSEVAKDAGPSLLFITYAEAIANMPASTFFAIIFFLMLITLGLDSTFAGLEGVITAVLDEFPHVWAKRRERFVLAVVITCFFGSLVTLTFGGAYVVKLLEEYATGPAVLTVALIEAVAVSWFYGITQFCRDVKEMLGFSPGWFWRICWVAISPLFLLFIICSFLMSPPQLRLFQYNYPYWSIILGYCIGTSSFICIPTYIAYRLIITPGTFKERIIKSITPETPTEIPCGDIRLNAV

In the case of `O=C1CCc2ccc(OCCCCN3CCN(c4cccc(Cl)c4Cl)CC3)cc2N1` [anhydride aripiprazole, aripiprazole], the hygroscopicity [1] is listed as “significantly hygroscopic”.
In the case of `O=C1CCc2ccc(OCCCCN3CCN(c4cccc(Cl)c4Cl)CC3)cc2N1` [Aripiprazole], the “affinity for serotonin 5-HT2C receptor” value [2] is given as “moderate affinity”, the “affinity for serotonin 5-HT2A receptor” value [3] is given as “high affinity” and the “affinity for serotonin 5-HT1A receptor” value [4] is given as “high affinity”. For the same compound, the “affinity for histamine H1 receptor” value (histamine H1 receptor) was “moderate affinity”, the “affinity for cholinergic muscarinic receptors” value [5] was “no appreciable affinity” and the “affinity for α1-adrenergic receptor” value (α1-adrenergic receptor) was “moderate affinity”. The “affinity for serotonin reuptake site” value (serotonin reuptake site) was “moderate affinity”.
